# Test results published in ChEMBL document CHEMBL5143642, “Thiosemicarbazone derivatives: Evaluation as cruzipain inhibitors and molecular modeling study of complexes with cruzain” (Bioorg Med Chem, 2022).
# Molecular target: Cruzipain (Trypanosoma cruzi, UniProt P25779)
# Experiment: Inhibition of epimastigote form of Trypanosoma cruzi Tulahuen 2 cruzain assessed as reduction in 7-amino-4-methylcoumarin release incubated for 20 mins folllowed by Z-FR-AMC substrate addition and measured up to 45 mins by fluorometric assay
# Chain of Cruzipain (P25779 whole entry): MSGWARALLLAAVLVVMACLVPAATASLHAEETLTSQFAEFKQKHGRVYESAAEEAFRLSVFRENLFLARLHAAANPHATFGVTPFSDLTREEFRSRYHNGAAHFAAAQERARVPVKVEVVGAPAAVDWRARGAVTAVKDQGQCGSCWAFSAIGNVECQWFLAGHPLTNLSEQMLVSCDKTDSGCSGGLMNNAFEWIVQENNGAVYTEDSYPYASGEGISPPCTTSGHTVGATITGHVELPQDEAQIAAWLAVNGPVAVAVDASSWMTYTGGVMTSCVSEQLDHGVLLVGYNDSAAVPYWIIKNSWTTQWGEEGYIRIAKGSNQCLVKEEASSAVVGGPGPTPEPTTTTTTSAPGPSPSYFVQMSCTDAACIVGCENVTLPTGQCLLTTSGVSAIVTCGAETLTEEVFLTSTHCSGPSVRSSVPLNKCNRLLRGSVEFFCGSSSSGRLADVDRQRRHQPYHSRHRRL
row,Structure (SMILES),IC50 [µM]
1,NC(=S)N/N=C/c1cccc(Cl)c1,105
2,CC/C(=N\NC(N)=S)c1cccc([N+](=O)[O-])c1,0.753
3,N/C(S)=N/N=C/c1ccc(Cl)c(Cl)c1,0.0816
4,C/C(=N\NC(N)=S)c1ccc([N+](=O)[O-])cc1,7.6
5,C/C(=N\NC(N)=S)c1cccc(Cl)c1,29.9
6,C/C(=N\N=C(\N)S)c1ccc(Cl)c(Cl)c1,0.147
7,CC/C(=N\N=C(\N)S)c1cccc(Cl)c1,23.2
8,CC/C(=N\N=C(\N)S)c1ccc(Cl)c(Cl)c1,0.0695
9,COc1cccc(/C(C)=N/N=C(/N)S)c1,1470
